The target in one experiment is human αVβ8 (Homo sapiens, UniProt P06756+P26012). Briefly: human αVβ8 HTRF binding assay. The procedure:
(§1) All binding assays used the HTRF (homogeneous time resolved fluorescence) technology from Cisbio International, therefore all assays are described as HTRF binding assays. The assay results for the Examples are listed above together with the characterization data. The HTRF binding assays are established for the following integrins: human αVβ6, human αVβ1, human αVβ3, human αVβ5, and human αVβ8. All assays used the following assay buffer: 20 mM Tris, pH 7.4, 1 mM MgCl2, 1 mM MnCl2, 0.01% Tween 20, and 0.01% BSA. Alternatively, a SPA-based assay was used for evaluation of receptor binding.
(§2) The following describes the components and a representative procedure for the human αVβ6 HTRF binding assay: Recombinant human αVβ6 Integrin (R & D systems, 3817-AV) was biotinylated. Biotinylated human αVβ6 Integrin was added to assay vessel at a final concentration of 1.25 nM. FITC-conjugated fibronectin (Cytoskeleton, FNR02) was then added at the final concentration of 5 nM. The mixture was centrifuged at 600 rpm for three minutes using Thermo Fisher Heraeus Multifuge X3 centrifuge and then incubated at room temperature for an hour. Streptavidin Terbium (Cisbio international 610STLB) was then added at the final concentration of 0.625 nM. The resulting mixture was centrifuged at 600 rpm for three minutes using Thermo Fisher Heraeus Multifuge X3 centrifuge and then incubated at room temperature overnight in dark before reading HTRF signals. […]

The next experiment concerns the target T1, human αVβ6 (Homo sapiens, UniProt P06756+P18564).
T1 construct: purchased R & D systems 3817-AV
Briefly: human αVβ6 HTRF binding assay. Particulars: recombinant human αVβ6 integrin, FITC-conjugated fibronectin. The essentials: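 HTRF binding in 20 mM Tris pH 7.4 with 1 mM MgCl2, 1 mM MnCl2, 0.01% Tween 20 and 0.01% BSA. For αVβ6, biotinylated integrin (1.25 nM) and FITC-fibronectin (5 nM) were incubated 1 h at RT, then streptavidin-terbium (0.625 nM) was added overnight in the dark. An SPA-based fibronectin binding format was an alternative.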
On the technique in general: TR-FRET usually uses a lanthanide donor and a delayed reading to cut background.

The target in the next experiment is human αVβ1 (Homo sapiens, UniProt P05556+P06756). Briefly: human αVβ1 HTRF binding assay. The procedure: as §1
The following describes the components and a representative procedure for the human αVβ6 HTRF binding assay: Recombinant human αVβ6 Integrin (R & D systems, 3817-AV) was biotinylated. Biotinylated human αVβ6 Integrin was added to assay vessel at a final concentration of 1.25 nM. FITC-conjugated fibronectin (Cytoskeleton, FNR02) was then added at the final concentration of 5 nM. The mixture was centrifuged at 600 rpm for three minutes using Thermo Fisher Heraeus Multifuge X3 centrifuge and then incubated at room temperature for an hour. Streptavidin Terbium (Cisbio international 610STLB) was then added at the final concentration of 0.625 nM. The resulting mixture was centrifuged at 600 rpm for three minutes using Thermo Fisher Heraeus Multifuge X3 centrifuge and then incubated at room temperature overnight in dark before reading HTRF signals.
The SPA-based assay was carried out according to the protocol and procedures similar to the ones described in the following reference with appropriate modifications to agents and ligands which are readily understood by one skilled in the art: Pachter J A, Zhang R, Mayer-Ezell R., “Scintillation proximity assay to measure binding of soluble fibronectin to antibody-captured αVβ1 integrin” Anal Biochem. 1995 Sep. 1; 230(1):101-7.

The target in a further experiment is human αVβ3 (Homo sapiens, UniProt P05106+P06756). Kind of experiment: human αVβ3 HTRF binding assay. The procedure:
as §1, §2

The target of a further experiment is human αVβ5 (Homo sapiens, UniProt P06756+P18084). Briefly: human αVβ5 HTRF binding assay. The procedure:
as §1, §2

Counter-ions that a name gives are not always drawn.

T1 sequence (P06756 31-992 limits assumed): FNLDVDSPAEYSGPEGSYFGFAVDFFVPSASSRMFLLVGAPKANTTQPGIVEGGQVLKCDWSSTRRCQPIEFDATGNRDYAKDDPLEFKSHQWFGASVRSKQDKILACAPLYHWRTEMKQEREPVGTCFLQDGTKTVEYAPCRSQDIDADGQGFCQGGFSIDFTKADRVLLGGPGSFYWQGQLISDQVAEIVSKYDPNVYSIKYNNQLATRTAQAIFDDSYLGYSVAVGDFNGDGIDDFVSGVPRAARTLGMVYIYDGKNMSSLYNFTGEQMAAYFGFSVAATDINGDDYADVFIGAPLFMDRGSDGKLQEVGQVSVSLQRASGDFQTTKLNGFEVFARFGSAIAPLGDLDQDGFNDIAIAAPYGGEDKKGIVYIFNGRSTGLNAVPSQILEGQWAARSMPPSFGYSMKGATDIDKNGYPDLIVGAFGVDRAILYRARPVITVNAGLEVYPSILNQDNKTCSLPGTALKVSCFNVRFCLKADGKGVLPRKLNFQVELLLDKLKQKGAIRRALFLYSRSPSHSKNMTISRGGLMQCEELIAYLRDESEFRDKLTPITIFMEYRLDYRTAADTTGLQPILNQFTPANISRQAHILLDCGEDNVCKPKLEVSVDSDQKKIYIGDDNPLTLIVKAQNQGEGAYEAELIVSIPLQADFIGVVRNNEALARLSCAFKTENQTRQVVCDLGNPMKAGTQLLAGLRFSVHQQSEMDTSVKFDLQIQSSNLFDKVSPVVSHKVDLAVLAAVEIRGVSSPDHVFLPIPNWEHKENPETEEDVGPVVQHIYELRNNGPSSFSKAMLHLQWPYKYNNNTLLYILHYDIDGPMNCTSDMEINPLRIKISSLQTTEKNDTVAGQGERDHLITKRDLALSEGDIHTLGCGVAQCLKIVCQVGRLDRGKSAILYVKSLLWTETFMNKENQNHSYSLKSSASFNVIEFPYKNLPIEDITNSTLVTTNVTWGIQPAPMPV
T1 sequence (P18564 22-707 limits assumed): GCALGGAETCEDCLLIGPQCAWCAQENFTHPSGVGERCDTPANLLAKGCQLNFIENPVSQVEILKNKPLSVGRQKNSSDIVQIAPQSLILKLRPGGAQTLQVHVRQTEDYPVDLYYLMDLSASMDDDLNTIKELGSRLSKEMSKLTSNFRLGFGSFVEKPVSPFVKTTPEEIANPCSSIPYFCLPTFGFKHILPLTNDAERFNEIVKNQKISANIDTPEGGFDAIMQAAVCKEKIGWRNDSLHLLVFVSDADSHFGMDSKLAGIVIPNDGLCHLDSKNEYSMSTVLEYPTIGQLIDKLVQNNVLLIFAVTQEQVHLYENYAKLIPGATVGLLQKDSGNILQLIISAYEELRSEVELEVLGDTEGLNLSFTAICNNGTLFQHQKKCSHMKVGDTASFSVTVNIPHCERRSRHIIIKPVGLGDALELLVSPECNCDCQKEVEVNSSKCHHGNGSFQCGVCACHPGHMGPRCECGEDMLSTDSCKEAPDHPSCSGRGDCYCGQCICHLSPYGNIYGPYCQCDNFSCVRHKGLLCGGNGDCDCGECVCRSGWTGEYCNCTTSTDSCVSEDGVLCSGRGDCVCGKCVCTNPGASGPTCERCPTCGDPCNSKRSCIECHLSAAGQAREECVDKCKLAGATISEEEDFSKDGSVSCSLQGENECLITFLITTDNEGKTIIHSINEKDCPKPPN
Chain of human αVβ8 (P06756 31-992 limits assumed): as the sequence (P06756 31-992 limits assumed) above
Chain of human αVβ8 (P26012 43-684 limits assumed): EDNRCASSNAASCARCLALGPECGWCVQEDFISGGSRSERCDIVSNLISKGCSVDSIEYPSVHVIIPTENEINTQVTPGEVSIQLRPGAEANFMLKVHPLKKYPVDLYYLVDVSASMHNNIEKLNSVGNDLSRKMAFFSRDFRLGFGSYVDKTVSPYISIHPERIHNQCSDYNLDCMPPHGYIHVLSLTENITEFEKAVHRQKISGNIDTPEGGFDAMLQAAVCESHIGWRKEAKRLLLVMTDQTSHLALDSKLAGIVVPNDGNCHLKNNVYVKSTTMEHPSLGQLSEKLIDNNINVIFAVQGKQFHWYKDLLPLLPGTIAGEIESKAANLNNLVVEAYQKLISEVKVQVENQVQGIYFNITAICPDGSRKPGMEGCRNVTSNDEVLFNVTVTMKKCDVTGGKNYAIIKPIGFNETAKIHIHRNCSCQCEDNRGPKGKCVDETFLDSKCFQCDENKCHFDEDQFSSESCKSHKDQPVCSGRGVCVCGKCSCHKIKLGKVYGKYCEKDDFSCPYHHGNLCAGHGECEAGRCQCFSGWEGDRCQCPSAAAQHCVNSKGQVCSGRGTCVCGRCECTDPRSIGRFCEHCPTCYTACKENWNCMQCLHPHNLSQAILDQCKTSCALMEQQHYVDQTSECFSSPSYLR
Chain of human αVβ3 (P06756 31-992 limits assumed): as the sequence (P06756 31-992 limits assumed) above
Chain of human αVβ3 (P05106 27-718 limits assumed): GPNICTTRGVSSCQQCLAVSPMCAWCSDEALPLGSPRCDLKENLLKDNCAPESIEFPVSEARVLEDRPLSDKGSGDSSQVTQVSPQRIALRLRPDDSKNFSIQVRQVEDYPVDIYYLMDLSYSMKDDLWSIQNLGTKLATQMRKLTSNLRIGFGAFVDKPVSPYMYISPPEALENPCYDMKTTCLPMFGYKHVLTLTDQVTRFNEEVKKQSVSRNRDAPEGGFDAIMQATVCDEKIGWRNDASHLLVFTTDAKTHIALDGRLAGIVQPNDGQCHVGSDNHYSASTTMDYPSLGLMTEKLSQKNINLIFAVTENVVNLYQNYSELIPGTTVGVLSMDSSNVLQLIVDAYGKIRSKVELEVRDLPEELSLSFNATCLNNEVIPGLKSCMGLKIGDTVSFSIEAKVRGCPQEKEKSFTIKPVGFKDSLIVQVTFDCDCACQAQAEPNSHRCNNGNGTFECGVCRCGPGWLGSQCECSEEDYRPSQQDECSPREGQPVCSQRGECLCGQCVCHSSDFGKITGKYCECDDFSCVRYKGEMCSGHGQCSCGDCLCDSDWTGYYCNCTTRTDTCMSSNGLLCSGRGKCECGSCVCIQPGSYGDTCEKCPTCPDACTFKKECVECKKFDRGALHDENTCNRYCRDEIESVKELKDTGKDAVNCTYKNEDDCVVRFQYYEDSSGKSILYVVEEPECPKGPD
Chain of human αVβ1 (P06756 31-992 limits assumed): as the sequence (P06756 31-992 limits assumed) above
Chain of human αVβ1 (P05556 21-728 limits assumed): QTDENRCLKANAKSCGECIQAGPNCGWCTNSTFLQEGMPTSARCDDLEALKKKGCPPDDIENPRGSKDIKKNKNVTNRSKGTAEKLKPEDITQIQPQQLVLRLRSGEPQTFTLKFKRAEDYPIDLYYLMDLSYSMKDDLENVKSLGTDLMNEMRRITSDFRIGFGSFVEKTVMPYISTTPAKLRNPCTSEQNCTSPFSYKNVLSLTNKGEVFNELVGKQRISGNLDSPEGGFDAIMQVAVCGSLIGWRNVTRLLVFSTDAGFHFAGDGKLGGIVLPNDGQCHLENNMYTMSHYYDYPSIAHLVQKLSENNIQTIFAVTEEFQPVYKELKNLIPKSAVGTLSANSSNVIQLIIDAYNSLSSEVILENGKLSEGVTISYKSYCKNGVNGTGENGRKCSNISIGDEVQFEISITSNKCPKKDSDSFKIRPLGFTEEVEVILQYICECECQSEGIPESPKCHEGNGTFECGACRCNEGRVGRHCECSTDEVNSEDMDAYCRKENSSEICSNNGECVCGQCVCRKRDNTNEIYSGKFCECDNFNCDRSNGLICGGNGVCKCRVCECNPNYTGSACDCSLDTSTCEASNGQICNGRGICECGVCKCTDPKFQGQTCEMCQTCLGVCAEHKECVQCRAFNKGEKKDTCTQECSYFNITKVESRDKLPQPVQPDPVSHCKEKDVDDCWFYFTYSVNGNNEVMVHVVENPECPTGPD
Chain of human αVβ5 (P06756 31-992 limits assumed): as the sequence (P06756 31-992 limits assumed) above
Chain of human αVβ5 (P18084 24-719 limits assumed): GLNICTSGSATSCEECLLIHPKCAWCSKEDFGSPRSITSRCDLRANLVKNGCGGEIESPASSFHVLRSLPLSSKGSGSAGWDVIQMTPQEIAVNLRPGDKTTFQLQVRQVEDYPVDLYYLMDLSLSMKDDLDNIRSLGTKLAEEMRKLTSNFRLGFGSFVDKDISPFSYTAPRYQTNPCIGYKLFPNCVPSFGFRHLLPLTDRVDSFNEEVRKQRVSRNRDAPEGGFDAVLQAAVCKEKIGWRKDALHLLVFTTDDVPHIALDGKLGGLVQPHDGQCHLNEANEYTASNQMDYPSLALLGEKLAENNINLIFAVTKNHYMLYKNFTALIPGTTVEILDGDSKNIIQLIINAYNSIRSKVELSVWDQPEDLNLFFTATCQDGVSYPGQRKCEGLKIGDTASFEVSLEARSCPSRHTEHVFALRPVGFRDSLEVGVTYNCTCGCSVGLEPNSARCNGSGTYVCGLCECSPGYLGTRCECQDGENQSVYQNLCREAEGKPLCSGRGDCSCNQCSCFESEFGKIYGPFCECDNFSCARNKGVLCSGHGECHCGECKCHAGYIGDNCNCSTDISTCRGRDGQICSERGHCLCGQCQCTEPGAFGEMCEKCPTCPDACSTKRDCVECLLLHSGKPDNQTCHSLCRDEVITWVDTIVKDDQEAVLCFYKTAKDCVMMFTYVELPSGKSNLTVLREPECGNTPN

`O=C(O)CC(c1cnc2ccccc2n1)n1ncc2cc(OCCc3ccc4c(n3)NCCC4)ccc21` (racemic) [Example 15, (±)-3-(Quinoxalin-2-yl)-3-(5-(2-(5,6,7,8-tetrahydro-1,8-naphthyridin-2-yl)ethoxy)-1H-indazol-1-yl)propanoic acid]: the half-maximal inhibitory concentration (IC50) on human αVβ8 was 1500 nM; on human αVβ6 it was 6 nM; at human αVβ1, 270 nM; at human αVβ3 it was 2.7 nM; on human αVβ5 it was 0.31 nM.

Consider `O=C(O)C[C@@H](c1cnc2ccccc2n1)n1ncc2cc(OCCc3ccc4c(n3)NCCC4)ccc21` [Example 17, (S)-3-(quinoxalin-2-yl)-3-(5-(2-(5,6,7,8-tetrahydro-1,8-naphthyridin-2-yl)ethoxy)-1H-indazol-1-yl)propanoic acid], for which the half-maximal inhibitory concentration (IC50) on human αVβ8 came out at 1900 nM; on human αVβ6 it was 4.2 nM; on human αVβ1, 190 nM; on human αVβ3 it was 2.1 nM; at human αVβ5, 0.25 nM.

Turning to `COc1ccc(C(CC(=O)O)n2ncc3cc(OCCc4ccc5c(n4)NCCC5)ccc32)cn1` (stereo not shown) [Example 34, 3-(6-Methoxypyridin-3-yl)-3-(5-(2-(5,6,7,8-tetrahydro-1,8-naphthyridin-2-yl)ethoxy)-1H-indazol-1-yl)propanoic acid, TFA], the concentration for half-maximal inhibition (IC50) on human αVβ8 came out at 1300 nM; on human αVβ6 it was 12 nM; at human αVβ1 it was 95 nM; at human αVβ3, 2.5 nM; on human αVβ5, 0.38 nM.

For the compound `COc1ccc([C@H](CC(=O)O)n2ncc3cc(OCCc4ccc5c(n4)NCCC5)ccc32)cn1` [Example 41, (S)-3-(6-Methoxypyridin-3-yl)-3-(5-(2-(5,6,7,8-tetrahydro-1,8-naphthyridin-2-yl)ethoxy)-1H-indazol-1-yl)propanoic acid], the IC50 at human αVβ8 was 510 nM; at human αVβ6 it was 6.2 nM; on human αVβ1, 83 nM; at human αVβ3 it was 2.3 nM; at human αVβ5 it was 0.22 nM.

For `O=C(O)CC(c1cnc2nccnc2c1)n1ncc2cc(OCCc3ccc4c(n3)NCCC4)ccc21` (stereo not shown) [Example 95, 3-(Pyrido[2,3-b]pyrazin-7-yl)-3-(5-(2-(5,6,7,8-tetrahydro-1,8-naphthyridin-2-yl)ethoxy)-1H-indazol-1-yl)propanoic acid, 2 TFA], the IC50 on human αVβ8 is 7600 nM; at human αVβ6, 30 nM; at human αVβ1 it was 210 nM; at human αVβ3, 2.4 nM.

Regarding `O=C(O)CC(c1cnc2ncccc2c1)n1ncc2cc(OCCc3ccc4c(n3)NCCC4)ccc21` (stereo not shown) [Example 101, 3-(1,8-Naphthyridin-3-yl)-3-(5-(2-(5,6,7,8-tetrahydro-1,8-naphthyridin-2-yl)ethoxy)-1H-indazol-1-yl)propanoic acid, 2 TFA], the half-maximal inhibitory concentration (IC50) was determined as 2300 nM on human αVβ8, 5.7 nM at human αVβ6, 100 nM on human αVβ1 and 1.6 nM on human αVβ3.

With `O=C(O)CC(c1cncc(N2CCCC2=O)c1)n1ncc2cc(OCCc3ccc4c(n3)NCCC4)ccc21` (stereo not shown) [Example 102, 3-(5-(2-Oxopyrrolidin-1-yl)pyridin-3-yl)-3-(5-(2-(5,6,7,8-tetrahydro-1,8-naphthyridin-2-yl)ethoxy)-1H-indazol-1-yl)propanoic acid, 2 TFA], the concentration for half-maximal inhibition (IC50) on human αVβ8 was 1300 nM; on human αVβ6, 4.3 nM; on human αVβ1, 39 nM; at human αVβ3, 2.2 nM.

Turning to `O=C(O)CC(c1cnc2c(c1)OCCO2)n1ncc2cc(OCCc3ccc4c(n3)NCCC4)ccc21` (stereo not shown) [Example 109, 3-(2,3-Dihydro-[1,4]dioxino[2,3-b]pyridin-7-yl)-3-(5-(2-(5,6,7,8-tetrahydro-1,8-naphthyridin-2-yl)ethoxy)-1H-indazol-1-yl)propanoic acid, 2 TFA], the IC50 on human αVβ8 was 9300 nM; at human αVβ6 it was 15 nM; on human αVβ1, 62 nM; on human αVβ3, 1.3 nM.

Consider `CNc1ncc(C(CC(=O)O)n2ncc3cc(OCCc4ccc5c(n4)NCCC5)ccc32)cn1` (stereo not shown) [Example 112, 3-(2-(Methylamino)pyrimidin-5-yl)-3-(5-(2-(5,6,7,8-tetrahydro-1,8-naphthyridin-2-yl)ethoxy)-1H-indazol-1-yl)propanoic acid, 2 TFA], for which the half-inhibitory concentration (IC50) worked out at 5000 nM at human αVβ8, 21 nM at human αVβ6, 93 nM on human αVβ1 and 2.9 nM at human αVβ3.

In the case of `CS(=O)(=O)c1cncc([C@@H](CC(=O)O)n2ncc3cc(OCCc4ccc5c(n4)NCCC5)ccc32)c1` [Example 165, (R)-3-(5-(methylsulfonyl)pyridin-3-yl)-3-(5-(2-(5,6,7,8-tetrahydro-1,8-naphthyridin-2-yl)ethoxy)-1H-indazol-1-yl)propanoic acid], the IC50 on human αVβ6 stood at 540 nM.

Turning to `CS(=O)(=O)c1cncc([C@H](CC(=O)O)n2ncc3cc(OCCc4ccc5c(n4)NCCC5)ccc32)c1` [Example 166, (S)-3-(5-(methylsulfonyl)pyridin-3-yl)-3-(5-(2-(5,6,7,8-tetrahydro-1,8-naphthyridin-2-yl)ethoxy)-1H-indazol-1-yl)propanoic acid], the IC50 at human αVβ6 was determined as 5.2 nM.

Turning to `COC(=O)NCc1cncc(C(CC(=O)O)n2ncc3cc(OCCc4ccc5c(n4)NCCC5)ccc32)c1` (stereo not shown) [Example 167, 3-(5-(((Methoxycarbonyl)amino)methyl)pyridin-3-yl)-3-(5-(2-(5,6,7,8-tetrahydro-1,8-naphthyridin-2-yl)ethoxy)-1H-indazol-1-yl)propanoic acid], at human αVβ6, the IC50 was determined as 15 nM.

Regarding `COC(=O)NCc1cncc([C@@H](CC(=O)O)n2ncc3cc(OCCc4ccc5c(n4)NCCC5)ccc32)c1` [Example 168], the IC50 on human αVβ6 was determined as 740 nM.

As to `CS(=O)(=O)NCc1cncc(C(CC(=O)O)n2ncc3cc(OCCc4ccc5c(n4)NCCC5)ccc32)c1` (stereo not shown) [Example 170], the IC50 at human αVβ6 came to 18 nM.

Take `CC(=O)NCc1cncc(C(CC(=O)O)n2ncc3cc(OCCc4ccc5c(n4)NCCC5)ccc32)c1` (stereo not shown) [Example 171]: the IC50 at human αVβ6 is 46 nM.

In the case of `O=C(O)CC(c1cnc2c(c1)CCCN2)n1ncc2cc(OCCc3ccc4c(n3)NCCC4)ccc21` (stereo not shown) [Example 172, 3-(5-(2-(5,6,7,8-Tetrahydro-1,8-naphthyridin-2-yl)ethoxy)-1H-indazol-1-yl)-3-(5,6,7,8-tetrahydro-1,8-naphthyridin-3-yl)propanoic acid], on human αVβ6, the IC50 turned out to be 12 nM.

With `O=C(O)CCCNc1cncc(C(CC(=O)O)n2ncc3cc(OCCc4ccc5c(n4)NCCC5)ccc32)n1` (stereo not shown) [Example 173, 4-((6-(2-Carboxy-1-(5-(2-(5,6,7,8-tetrahydro-1,8-naphthyridin-2-yl)ethoxy)-1H-indazol-1-yl)ethyl)pyrazin-2-yl)amino)butanoic acid], the IC50 at human αVβ6 was determined as 370 nM.

As for `COc1ccc(C(CC(=O)O)n2ncc3c(CCc4ccc5c(n4)NCCC5)cccc32)cn1` (stereo not shown) [Example 174, 3-(6-Methoxypyridin-3-yl)-3-(4-(2-(5,6,7,8-tetrahydro-1,8-naphthyridin-2-yl)ethyl)-1H-indazol-1-yl)propanoic acid], the 50% inhibitory concentration (IC50) at human αVβ6 was determined as 540 nM.

As for `COc1ccc(C(CC(=O)O)n2ncc3cc(OCCc4ccc5c(n4)NCCN5C)ccc32)cn1` (stereo not shown) [Example 179, 3-(6-Methoxypyridin-3-yl)-3-(5-(2-(1-methyl-1,2,3,4-tetrahydropyrido[2,3-b]pyrazin-6-yl)ethoxy)-1H-indazol-1-yl)propanoic acid], the IC50 on human αVβ6 was 47 nM.

With `COc1ccc([C@H](CC(=O)O)n2ncc3cc(OCCc4ccc5c(n4)NCCO5)ccc32)cn1` [Example 180, (S)-3-(5-(2-(3,4-dihydro-2H-pyrido[3,2-b][1,4]oxazin-6-yl)ethoxy)-1H-indazol-1-yl)-3-(6-methoxypyridin-3-yl)propanoic acid], the 50% inhibitory concentration (IC50) on human αVβ6 came out at 15 nM.

On to `COc1ccc([C@@H](CC(=O)O)n2ncc3cc(OCCc4ccc5c(n4)NCCO5)ccc32)cn1` [Example 181, (R)-3-(5-(2-(3,4-dihydro-2H-pyrido[3,2-b][1,4]oxazin-6-yl)ethoxy)-1H-indazol-1-yl)-3-(6-methoxypyridin-3-yl)propanoic acid], for which the IC50 at human αVβ6 is 5000 nM.

A word on the IC50: it is the concentration at which inhibition is half-maximal.
